Laboratory results as given in publication PMC12249711, “Comprehensive Evaluation of 1H-Isoindole-1,3(2H)-Dione Derivatives: Pharmacokinetic Studies and Analgesic Potential in Various Pain Models” (International Journal of Molecular Sciences, 2025).
Where two headings read alike, the source gives them in different places.

Key:
[1] = Pharmacokinetic study after single i.p. administration, serum and brain concentrations by LC-MS/MS, non-compartmental analysis; format: in vivo, Albino Swiss mice; conditions: mice; for Kp: brain/serum, read-out: Kbrain/serum (brain/serum partitioning coefficient); for Kp / MRT / Tmax / half-life / k el / CL/F / Vd/F / AUC0-inf / AUC0–8h: 5 mg/kg i.p.; for half-life: read-out: t1/2(λz) half-life in the elimination phase (converted); for k el: read-out: λz (terminal elimination rate constant) (converted); for Vd/F: read-out: Vz/F
Method: The compounds F1, F2, F3, and F4 were suspended in a 1% Tween 80 solution in sterile water for injection and given to mice i.p. at a dose of 5 mg/kg (n = 3 per time point; all mice in procedure = 96) as a single injection at a volume of 10 mL/kg. At specific time points (5; 15; 30; 60; 120; 240; 360; and 480 min after compound administration), mice were sacrificed by decapitation under isoflurane (5%) anesthesia to harvest blood and brain for assays. After allowing the blood to coagulate for 20 min at room temperature, blood samples were centrifuged for 10 min at 8000 rpm (Eppendorf miniSpin centrifuge) to obtain serum. Moreover, brains were removed (at the same time point) from skulls and washed with 0.9% NaCl. The obtained serum and brains were stored at −80 °C until analysis.
Concentrations of compounds F1 to F4 in mice brains and serum were measured by the liquid chromatography tandem mass spectrometry (LC-MS/MS) method using a Sciex QTRAP 4500 triple quadrupole mass spectrometer coupled to an Excion LC AC HPLC system (both from Danaher Corporation, Washington, DC, USA). The brains were homogenized in distilled water at the ratio of 1:4 (w/v) with a tissue homogenizer ULTRA-TURRAX T10 basic (IKA, Königswinter, Germany). The stock solutions of analyzed compounds were prepared in methanol at the concentration of 1 mg/mL. For the preparation of calibration curves, working standard solutions were prepared in methanol by the serial dilution of the stock solution at the following concentrations: 0.005; 0.01; 0.1; 0.25; 0.5; 1; 2.5; 5; and 10 µg/mL. To prepare samples for the calibration curve, 45 μL of matrix (blank plasma or brain homogenate) was spiked with 5 μL of standard working solution at an appropriate concentration level and vortexed for 10 s. Brain homogenates or serum samples (50 µL) as well as calibration samples were deproteinized with 150 μL of 0.1% formic acid in acetonitrile with an addition of internal standard (valsartan), shaken for 10 min (IKA Vibrax VXR, Königswinter, Germany), and centrifuged for 5 min at a speed of 8000× g (Eppendorf miniSpin centrifuge, Hamburg, Germany). Then, brain or serum supernatants were transferred into the autosampler vials. The autosampler temperature was maintained at 15 °C and a sample volume of 1 μL was injected into the LC-MS/MS system.
Chromatographic separation was carried out on the Hypersil GoldTM C18 analytical column (2.1 × 50 mm, 3 µm, Thermo Scientific, Waltham, MA, USA) with the oven temperature set at 30 °C. The mobile phase containing 0.1% formic acid in acetonitrile and 0.1% formic acid in water was delivered at a flow rate of […] in the gradient mode. Electrospray ionization (ESI) in the positive ion mode was used for ion production. The tandem mass spectrometer was operated at unit resolution in the selected reaction monitoring mode (SRM), monitoring the transitions of the protonated molecular ions m/z 366 to 201 (CE = 40 eV) and m/z 366 to 160 (CE = 40 eV) for compound F1, m/z 396 to 190 (CE = 39 eV) and m/z 396 to 160 (CE = 49 eV) for compound F2, m/z 434 to 145 (CE = 95 eV) and m/z 434 to 160 (CE = 47 eV) for compound F3, and m/z 456 to 167 (CE = 27 eV) and m/z 456 to 152 (CE = 85 eV) for compound F4. The first pair was used as a quantifier and the second for the identity verification—qualifier. One pair (m/z 436 to 235; CE = 42 eV) was monitored for valsartan used as an internal standard. The mass spectrometric conditions were optimized by continuous infusion of the standard solutions at the rate of 7 μL/min using a Harvard infusion pump (Harvard Apparatus, Holliston, MA, USA). The ion source temperature was maintained at 450 °C and the ion spray voltage was set at 4500 V. The curtain gas (CUR) was set at 40 and the collision gas (CAD) at Medium. The calibration curves were constructed by plotting the ratio of the peak area of the studied compound to internal standard (IS) versus drug concentration and generated by weighted (1/x·x) linear regression analysis. […]

mice = assay: Capsaicin-induced neurogenic pain test; format: in vivo, Albino Swiss mice; conditions: vs vehicle
Method: The examined compounds were administered 30 min before the test (n = 112). The pain reaction was induced by injecting 20 μL of a capsaicin solution prepared in saline (1.6 μg capsaicin per mouse paw) into the dorsal surface of the right hind paw for further details. The animals were immediately placed individually into glass beakers and the amount of time spent licking the injected paw was recorded for 5 min with a chronometer.

rats = assay: Carrageenan-induced paw edema (plethysmometer); format: in vivo, Wistar rats; conditions: for Change in Edema Volume: mean ± SEM, rats; for Reduction in edema volume: vs control
Method: The acute and local inflammation and paw edema was induced by intraplantar (i.pl.) injection of 0.1 mL of 1% carrageenan solution in PBS into the rat’s right hind paw, according to the modified method of Winter and Lence, as described previously; (n = 84). […] Vehicle (1% Tween 80) was administered by the same route as the tested compounds.

[2] = parameters: method as in PMID 35396875; conditions: within the tested dose range; cited from earlier work
[3] = Albino Swiss, mouse, ip, serum, 5 min after 5 mg/kg i.p., read-out: Cmax (maximal concentration)
[4] = brain, 5 mg/kg i.p. single dose
[5] = serum, 5 mg/kg i.p. single dose
[6] = 10 mg/kg i.p., 1 h after carrageenan
[7] = 10 mg/kg i.p., 2 h after carrageenan
[8] = 10 mg/kg i.p., 3 h after carrageenan
[9] = 20 mg/kg i.p., 1 h after carrageenan
[10] = 20 mg/kg i.p., 2 h after carrageenan
[11] = 20 mg/kg i.p., 3 h after carrageenan

| SMILES | Kp ([1]; Albino Swiss, mouse, ip) | MRT ([1]; Albino Swiss, mouse, ip, brain) | Tmax ([1]; Albino Swiss, mouse, ip, brain) | half-life ([1]; Albino Swiss, mouse, ip, brain) | k el ([1]; Albino Swiss, mouse, ip, brain) | Cmax [1, 3] | CL/F ([1]; Albino Swiss, mouse, ip, serum) | MRT ([1]; Albino Swiss, mouse, ip, serum) | Tmax ([1]; Albino Swiss, mouse, ip, serum) | Vd/F ([1]; Albino Swiss, mouse, ip, serum) | half-life ([1]; Albino Swiss, mouse, ip, serum) | k el ([1]; Albino Swiss, mouse, ip, serum) | AUC0-inf ([1]; brain) | AUC0–8h ([1]; brain) | Cmax [1, 4] | AUC0-inf ([1]; serum) | AUC0–8h ([1]; serum) | Cmax [1, 5] | Reduction of capsaicin-induced neurogenic pain (mice; 20 mg/kg i.p.) | Change in Edema Volume (rats; [6]) | other results |
| --- | --- | --- | --- | --- | --- | --- | --- | --- | --- | --- | --- | --- | --- | --- | --- | --- | --- | --- | --- | --- | --- |
| O=C1c2ccccc2C(=O)N1CC(O)CN1CCN(c2cccc(C(F)(F)F)c2)CC1 (stereo not shown) [Compound F3] | 2.05 | 3.16 h | 0.25 h | 1.31 h | 0.000147 s⁻¹ | 210 ng/mL | 297 mL/min/kg | 2.8 h | 0.083 h | 32.4 L/kg | 1.26 h | 0.000153 s⁻¹ | 573.90 µg∙h/L(kg) | 520.05 µg∙h/L(kg) | 202.25 µg/L(kg) | 280.26 µg∙h/L(kg) | 258.81 µg∙h/L(kg) | 210.25 µg/L(kg) | 48.46% | 1.37 ± 0.04 ns mL | Change in Edema Volume (rats; [7]): 1.70 ± 0.04 ns mL; Change in Edema Volume (rats; [8]): 1.89 ± 0.03 mL; Reduction in edema volume (rats; 10 mg/kg, 3 h): 9.5%; Change in Edema Volume (rats; [9]): 1.14 ± 0.05 mL; Change in Edema Volume (rats; [10]): 1.47 ± 0.07 mL; Change in Edema Volume (rats; [11]): 1.67 ± 0.06 mL; Reduction in edema volume (rats; 20 mg/kg, 1 h): 16.8%; Reduction in edema volume (rats; 20 mg/kg, 2 h): 19.2%; Reduction in edema volume (rats; 20 mg/kg, 3 h): 20.1%; Effect on locomotor activity / sedation [2]: mild sedative effects |
| O=C1c2ccccc2C(=O)N1CC(O)CN1CCN(C(c2ccccc2)c2ccccc2)CC1 (stereo not shown) [Compound F4] | 1.62 | 1.63 h | 0.25 h | 0.78 h | 0.000247 s⁻¹ | 131 ng/mL | 800 mL/min/kg | 1.47 h | 0.083 h | 55.8 L/kg | 0.8 h | 0.000239 s⁻¹ | 168.99 µg∙h/L(kg) | 164.50 µg∙h/L(kg) | 163.5 µg/L(kg) | 104.12 µg∙h/L(kg) | 101.99 µg∙h/L(kg) | 130.58 µg/L(kg) | 57.25% | 1.37 ± 0.04 mL | Reduction of capsaicin-induced neurogenic pain (mice; 5 mg/kg i.p.): 42%; Reduction of capsaicin-induced neurogenic pain (mice; 10 mg/kg i.p.): 33.6%; Change in Edema Volume (rats; [7]): 1.56 ± 0.06 mL; Change in Edema Volume (rats; [8]): 1.85 ± 0.04 mL; Reduction in edema volume (rats; 10 mg/kg, 1 h): 8.7%; Reduction in edema volume (rats; 10 mg/kg, 2 h): 17%; Reduction in edema volume (rats; 10 mg/kg, 3 h): 15.5%; Change in Edema Volume (rats; [9]): 1.23 ± 0.01 mL; Change in Edema Volume (rats; [10]): 1.47 ± 0.05 mL; Change in Edema Volume (rats; [11]): 1.73 ± 0.02 mL; Reduction in edema volume (rats; 20 mg/kg, 1 h): 18%; Reduction in edema volume (rats; 20 mg/kg, 2 h): 21.8%; Reduction in edema volume (rats; 20 mg/kg, 3 h): 21%; Effect on locomotor activity / sedation [2]: did not impair locomotor activity |
